Entries after “also recorded” stand apart in the source; their conditions may differ. Marks after values point to notes of the source that are not given here. No end group written: not given here.
Legend:
[1] = test system: Pshp-luxAB reporter (PdrA/SHP system); assay: luciferase assay, chromosomal Pshp-luxAB reporter, wild type; conditions: CDM; for induction of Pshp-luxAB by tryglysins: 100 nM tryglysin
[2] = test system: PwgkA-luxAB reporter (PdrA/SHP system); assay: luciferase assay, chromosomal PwgkA-luxAB reporter, wild type; conditions: CDM, 100 nM tryglysin
[3] = test system: L. lactis ATCC 11454; assay: growth inhibition by tryglysins; format: cell-based, Lactococcus lactis; set-up: key: −: not inhibited; +: mildly inhibited; ++: inhibited; conditions: 100 nM tryglysin, CDM, 37°C, 5% CO2, OD600 every hour; summary of growth curves
Description: (§1) For experiments to examine the effect of tryglysins, bacterial strains were grown from prestored glycerol stocks at −80°C and inoculated into THY broth. […] To monitor growth, OD600 was measured using a GENESYS 30 Vis spectrophotometer every hour.

[4] = test system: S. agalactiae A909; assay: growth inhibition by tryglysins; format: cell-based, Streptococcus agalactiae; set-up: key: −: not inhibited; +: mildly inhibited; ++: inhibited; conditions: 100 nM tryglysin, CDM, 37°C, 5% CO2, OD600 every hour; summary of growth curves
Description: as §1

[5] = test system: S. pneumoniae D39; assay: growth inhibition by tryglysins; format: cell-based, Streptococcus pneumoniae; set-up: key to Level of inhibition: −: not inhibited; +: mildly inhibited; ++: inhibited; conditions: for Level of inhibition: 100 nM tryglysin, CDM, 37°C, 5% CO2, OD600 every hour, summary of growth curves
Description: as §1

[6] = test system: S. mutans UA159; assay: cell chaining by microscopy; format: cell-based, Streptococcus mutans; conditions: 100 nM
Description: For microscopic analysis of live cells exposed to tryglysins, S. mutans strains were inoculated and grown as described above in the “Luciferase assays with chromosomal reporters” section. […] For microscopic analysis of samples, 2 μl of live cells was taken at 2 h, 5 h, and 7 h after the addition of tryglysins and examined using an Olympus CKX53 inverted microscope with a 40× LCACHN-iPC infinity objective (LCACHN40XIPC; numerical aperture, 0.55) connected to a SC50 camera (Olympus). Images were processed using Olympus Stream Image Analysis software (Olympus).
For microscopic analysis of fixed cells exposed to tryglysin A, S. mutans strains were inoculated and grown as described above in the “Luciferase assays with chromosomal reporters” section. […] Supernatant was discarded, and cells were resuspended in 1 ml of fresh CDM. Resuspended cells were dropped into 10 ml of ice-cold 80% methanol and incubated for 1 h at room temperature. Afterwards, 800 μl of 4% paraformaldehyde was added to each methanol cell suspension. The mixture was incubated at room temperature for 5 min, and cells were spun down at 2,500 × g for 10 min. Supernatant was discarded, and cells were resuspended in 200 to 800 μl chilled GTE buffer (50 mM glucose, 20 mM Tris-HCl [pH 7.5], 1 mM EDTA). Cells were kept at 4°C overnight, and then 2 to 5 μl of cells in GTE buffer were placed on a microscope slide. Prepared slides were examined using an Olympus BX51 fluorescence microscope with a 100× UPLFLN objective (UPLFLN 100XO2; numerical aperture, 1.3) connected to an Olympus DP72 Single Chip color charge-coupled-device (CCD) camera. Images were processed using ImageJ 1.52i ([80]). […] Cells were classified as being in chains greater than three per chain or equal to or lesser than three per chain. The percentage of cells belonging to either of these categories was calculated as the number of cells in the category/total number of cells. […] For statistical analysis, data were analyzed via a one-way analysis of variance (ANOVA) with Dunnet’s multiple comparison posttest in Graph Pad Prism.

[7] = test system: S. oralis 108; assay: growth inhibition by tryglysins; format: cell-based, Streptococcus oralis; set-up: key: −: not inhibited; +: mildly inhibited; ++: inhibited; conditions: 100 nM tryglysin, CDM, 37°C, 5% CO2, OD600 every hour; summary of growth curves
Description: as §1

[8] = test system: S. mitis CCUG 31611; assay: growth inhibition by tryglysins; format: cell-based, Streptococcus mitis; set-up: key: −: not inhibited; +: mildly inhibited; ++: inhibited; conditions: 100 nM tryglysin, CDM, 37°C, 5% CO2, OD600 every hour; summary of growth curves
Description: as §1

[9] = test system: S. mutans UA159; assay: CFU/ml assay (bacteriostatic or bactericidal); format: cell-based, Streptococcus mutans; conditions: 100 nM, CDM; for recovery of viability: 24 h; for mode of action on viability: overall effect
Description: To perform CFU/milliliter assays, S. mutans was grown overnight, washed, and resuspended in CDM as outlined above in the “Luciferase assays with chromosomal reporters” section, with the exception that replicate tubes for harvest at each time point for both no-tryglysin and tryglysin-treated conditions were inoculated from bacterial cultures resuspended overnight. […] At this time point (0 h) and at 1, 2, 4, 6, 8 and 24 h after tryglysin addition, a set of no-tryglysin and tryglysin-treated tubes were harvested. At each time point, 100 μl from each tube in a set was harvested and diluted 1:10 successively in fresh THY. Dilutions from 10^−3 to 10^−6 (depending on the time point) were plated as follows: for each dilution, 10 μl was plated in triplicate on THY agar plates and allowed to drip vertically down the plate. This allowed for the spread of S. mutans colonies for later CFU/ml counting. After each dilution plating, plates were placed at 37°C and incubated for 48 h. […] After 2 days of incubation, colonies were counted for each time point, replicate, and condition, and the number of CFU/milliliter was calculated. Drip plates were considered to have accurate counts if colonies were between 10 and 150 colonies per drip. […] Statistical analysis was performed using a one-way ANOVA with Sidak’s multiple comparison posttest on Graph Pad Prism.

[10] = test system: S. gordonii Challis Bt; assay: growth inhibition by tryglysins; format: cell-based, Streptococcus gordonii; set-up: key: −: not inhibited; +: mildly inhibited; ++: inhibited; conditions: 100 nM tryglysin, CDM, 37°C, 5% CO2, OD600 every hour; summary of growth curves
Description: as §1

[11] = test system: S. ferus DSM 20646; assay: growth inhibition by tryglysins; format: cell-based, Streptococcus ferus; set-up: key to Level of inhibition: −: not inhibited; +: mildly inhibited; ++: inhibited; conditions: CDM; for Level of inhibition: 100 nM tryglysin, 37°C, 5% CO2, OD600 every hour, summary of growth curves; for growth inhibition at 100 nM (titration): Fig. 6
Description: as §1

[12] = test system: E. faecalis V583; assay: growth inhibition by tryglysins; format: cell-based, Enterococcus faecalis; set-up: key: −: not inhibited; +: mildly inhibited; ++: inhibited; conditions: 100 nM tryglysin, CDM, 37°C, 5% CO2, OD600 every hour; summary of growth curves
Description: as §1

[13] = test system: S. pyogenes NZ131; assay: growth inhibition by tryglysins; format: cell-based, Streptococcus pyogenes; set-up: key: −: not inhibited; +: mildly inhibited; ++: inhibited; conditions: 100 nM tryglysin, CDM, 37°C, 5% CO2, OD600 every hour; summary of growth curves
Description: as §1

[14] = test system: S. bovis JB1; assay: growth inhibition by tryglysins; format: cell-based, Streptococcus bovis; set-up: key: −: not inhibited; +: mildly inhibited; ++: inhibited; conditions: 100 nM tryglysin, CDM, 37°C, 5% CO2, OD600 every hour; summary of growth curves
Description: as §1

[15] = test system: S. mutans UA159; assay: growth inhibition by tryglysins; format: cell-based, Streptococcus mutans; set-up: key to Level of inhibition: −: not inhibited; +: mildly inhibited; ++: inhibited; conditions: for Level of inhibition: 100 nM tryglysin, 37°C, 5% CO2, OD600 every hour, summary of growth curves; for growth inhibition at 100 nM (titration): 9-h growth assay, Fig. 6
Description: as §1

[16] = test system: S. mutans UA159; assay: growth inhibition by UV-exposed tryglysin A; format: cell-based, Streptococcus mutans; conditions: short-wavelength UV light 1 h, 2 h or 4 h; 100 or 500 nM tryglysin A; CDM
Description: To monitor growth, OD600 was measured using a GENESYS 30 Vis spectrophotometer every hour, and data were plotted using Graph Pad Prism 8.0.0.

[17] = 5 h, A: one-way ANOVA with Dunnet's posttest
[18] = 7 h, A: one-way ANOVA with Dunnet's posttest

Row | Substance | induction of PwgkA-luxAB by tryglysins [2] | induction of Pshp-luxAB by tryglysins [1] | Level of inhibition [3] | Level of inhibition [4] | Level of inhibition [5] | cell chaining ([6]; 2 h) | cell chaining [6, 17] | cell chaining [6, 18] | Level of inhibition [7] | Level of inhibition [8] | recovery of viability [9] | mode of action on viability [9] | Level of inhibition [10] | Level of inhibition [11] | growth inhibition at 100 nM (titration) [11] | Level of inhibition [12] | Level of inhibition [13] | Level of inhibition [14] | optical density of cultures parallel to CFU assay [15] | Level of inhibition ([15]; CDM) | further results
1 | GLDWWSL [XIP, reference compound] |  |  |  |  |  |  |  |  |  |  |  |  |  |  |  |  |  |  |  |  | induction of Pshp-luxAB reporter (cross talk) ([1]; 1 μM, Fig. S2C, performed twice): did not observe any induction
2 | VNCWGKH (also: sidechain bridge or staple (positions not given here)) [tryglysin B, 7-mer macrocyclic peptide VNCWGKH carrying the tetrahydro[5,6]benzindole modification, predicted product of the S. mutans wgk cluster] | do not induce the system | do not induce the system | − | + | ++ | small chains were observed | appeared to do the same | appeared to do the same | ++ | ++ | treated cells were able to overcome this by 24 h | bacteriostatic activities rather than bactericidal | + | ++ | substantially inhibited | − | − | + | A proportionate inhibition and restoration of growth were observable by optical density measurements | ++ | growth inhibition at 100 nM (titration) ([15]; CDM): substantially inhibited; concentration required for complete growth inhibition ([15]; CDM, over the 9-h growth assay, Fig. 6A): 1 µM
3 | VNSWGKH (also: sidechain bridge or staple (positions not given here)) [tryglysin A, macrocyclic 7-mer RiPP from S. ferus, VNSWGKH with tetrahydro[5,6]benzindole modification] | do not induce the system | do not induce the system | − | ++ | ++^b | small chains were observed | significantly increased | significantly increased | ++ | ++ | treated cells were able to overcome this by 24 h | bacteriostatic activities rather than bactericidal | + | ++ | substantially inhibited | − | − | + | A proportionate inhibition and restoration of growth were observable by optical density measurements | ++ | inhibitory activity after UV exposure [16]: Proportionate decrease of inhibitory activity was observed; also recorded: inhibitory activity can be inactivated by exposure to UV light; reproducibility of inhibition ([5]; 100 nM, three experiments): b For S. pneumoniae D39, two experiments showed inhibition with 100 nM tryglysin A, one experiment did not.; growth inhibition at 100 nM (titration) ([15]; CDM): substantially inhibited

Source: PMC8092268, “Quorum Sensing in Streptococcus mutans Regulates Production of Tryglysin, a Novel RaS-RiPP Antimicrobial Compound” (mBio, 2021)
